Results published in ChEMBL document CHEMBL5346964, “Discovery of LNP1892: A Precision Calcimimetic for the Treatment of Secondary Hyperparathyroidism” (J Med Chem, 2023).

Legend:
[1] = Oral bioavailability in Sprague-Dawley rat at 10 mg/kg measured upto 24 hrs by LC/MS-MS analysis; format: ADME, organism-based; conditions: in vivo
[2] = Kinetic solubility of compound in 0.1N HCL upto 500 uM measured after 16 hrs under shaking condition by UV-visible method; format: physicochemical; conditions: read-out: Kinetic_solubility
[3] = Tmax in Sprague-Dawley rat at 300 mg/kg; format: ADME, organism-based; conditions: in vivo
[4] = Protein binding in dog plasma incubated for 16 hrs under shaking condition by rapid equilibrium dialysis based LC-MS/MS method; format: ADME, cell-free, Canis lupus familiaris; conditions: read-out: PPB
[5] = Volume of distribution at steady state in BALB/c mouse at 1 mg/kg, iv measured upto 24 hrs by LC/MS-MS analysis; format: ADME, organism-based; conditions: in vivo, read-out: Vdss
[6] = Oral bioavailability in cynomolgus monkey at 5 mg/kg measured upto 24 hrs by LC/MS-MS analysis; format: ADME, organism-based, Macaca fascicularis; conditions: in vivo
[7] = Tmax in BALB/c mouse at 10 mg/kg, po measured upto 24 hrs by LC/MS-MS analysis; format: ADME, organism-based; conditions: in vivo
[8] = Stability in human plasma measured up to 4 hrs by LC-MS/MS method; format: ADME, cell-free; conditions: read-out: Stability
[9] = Half life in Sprague-Dawley rat at 1 mg/kg, iv measured upto 24 hrs by LC-MS/MS analysis; format: ADME, organism-based; conditions: in vivo
[10] = Plasma clearance in Beagle dog at 1 mg/kg, iv measured upto 24 hrs by LC/MS-MS analysis; format: ADME, organism-based, Canis lupus familiaris
[11] = AUC(0 to t) in rat at 50 mg/kg per day, po via gavage administered for 2 weeks; format: ADME, organism-based; set-up: dose 50 mg/kg, time 2 weeks, route po; conditions: in vivo
CYP1A2 = target: T1, CYP1A2 (Homo sapiens, UniProt P05177); assay: Inhibition of CYP1A2 in human liver microsomes at 10 uM preincubated for 5 mins followed by NADPH addition by LC-MS/MS analysis relative to control; format: ADME, Microsome
T1 sequence (P05177 whole entry): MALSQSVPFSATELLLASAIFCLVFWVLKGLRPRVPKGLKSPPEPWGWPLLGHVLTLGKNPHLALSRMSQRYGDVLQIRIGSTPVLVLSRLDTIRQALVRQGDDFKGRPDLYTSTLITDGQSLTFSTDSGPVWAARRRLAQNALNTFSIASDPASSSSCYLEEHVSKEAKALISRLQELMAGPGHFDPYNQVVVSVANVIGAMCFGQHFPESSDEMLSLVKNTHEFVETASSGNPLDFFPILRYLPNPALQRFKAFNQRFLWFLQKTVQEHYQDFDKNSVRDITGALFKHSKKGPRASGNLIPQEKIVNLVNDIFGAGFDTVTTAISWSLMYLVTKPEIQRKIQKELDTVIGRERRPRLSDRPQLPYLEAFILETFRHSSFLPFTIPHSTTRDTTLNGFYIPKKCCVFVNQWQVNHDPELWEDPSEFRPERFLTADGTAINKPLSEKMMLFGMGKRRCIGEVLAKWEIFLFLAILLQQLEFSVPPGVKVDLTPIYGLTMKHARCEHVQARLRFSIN

[12] = Cmax in human at 10 mg/kg, po administered as single dose; format: ADME, organism-based; set-up: dose 10 mg/kg, route po; conditions: in vivo
[13] = Microsomal stability in rat liver microsomes assessed as parent compound remaining at 1 uM measured upto 30 mins in presence of NADPH by LC-MS/MS analysis; format: ADME, Microsome; conditions: read-out: Stability
[14] = Effect on parathyroid hormone in overnight fasted Sprague-Dawley rat assessed as reduction in plasma PTH level at 10 mg/kg, po measured after 2 hrs of post treatment by sandwich ELISA analysis; format: functional; set-up: scale not given: the % may be the effect or the level left
[15] = Cmax in Sprague-Dawley rat at 10 mg/kg; format: ADME, organism-based; set-up: dose 10 mg/kg; conditions: in vivo
[16] = Clearance in Sprague-Dawley rat at 1 mg/kg, iv measured upto 24 hrs by LC-MS/MS analysis; format: ADME, organism-based; conditions: in vivo
[17] = Effect on parathyroid hormone in overnight fasted Sprague-Dawley rat assessed as reduction in plasma PTH level at 3 mg/kg, po measured after 4 hrs of post treatment by sandwich ELISA analysis; format: functional; set-up: scale not given: the % may be the effect or the level left
[18] = Metabolic stability in mouse liver cytosol measured upto 60 mins by LC-MS/MS method; format: ADME, subcellular; conditions: read-out: Stability
[19] = Cmax in Beagle dog at 5 mg/kg, po measured upto 24 hrs by LC/MS-MS analysis; format: ADME, organism-based, Canis lupus familiaris; set-up: dose 5 mg/kg, time < 24 hrs, route po; conditions: in vivo
CYP2D6 = CYP2D6 (Homo sapiens, UniProt P10635); assay: Inhibition of CYP2D6 in human liver microsomes at 10 uM preincubated for 5 mins followed by NADPH addition by LC-MS/MS analysis relative to control; format: ADME, Microsome
[20] = Cmax in Sprague-Dawley rat at 300 mg/kg; format: ADME, organism-based; set-up: dose 300 mg/kg; conditions: in vivo
[21] = Cmax in Sprague-Dawley rat at 10 mg/kg, po administered as solution measured upto 24 hrs by LC-MS/MS analysis; format: ADME, organism-based; set-up: dose 10 mg/kg, time < 24 hrs, route po; conditions: in vivo
[22] = AUClast in Sprague-Dawley rat at 10 mg/kg, po administered as suspension measured upto 24 hrs by LC-MS/MS analysis; format: ADME, organism-based; set-up: dose 10 mg/kg, time < 24 hrs, route po; conditions: in vivo
[23] = AUC(0 to 24 hrs) in Sprague-Dawley rat at 300 mg/kg; format: ADME, organism-based; set-up: dose 300 mg/kg; conditions: in vivo
[24] = Chemical stability of the compound at pH 2 measured after 0.5 to 4 hrs; format: physicochemical; conditions: buffer, time 0.5-4 hrs
[25] = target: T2, Adenosine receptor A1 (Homo sapiens) (UniProt P30542); assay: Inhibition of human recombinant A1 receptor at 10 uM relative to control
T2 sequence (whole entry): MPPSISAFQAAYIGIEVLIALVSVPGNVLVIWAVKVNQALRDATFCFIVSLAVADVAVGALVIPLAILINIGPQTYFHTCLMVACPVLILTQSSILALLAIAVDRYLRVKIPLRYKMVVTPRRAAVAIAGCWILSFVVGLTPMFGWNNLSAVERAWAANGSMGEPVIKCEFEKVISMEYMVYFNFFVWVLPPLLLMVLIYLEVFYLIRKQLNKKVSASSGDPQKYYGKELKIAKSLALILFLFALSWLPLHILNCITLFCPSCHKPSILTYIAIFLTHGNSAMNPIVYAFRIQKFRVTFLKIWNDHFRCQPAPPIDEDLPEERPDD

[26] = Chemical stability of the compound in FaSSIF measured after 0.5 to 4 hrs; format: physicochemical; conditions: simulated gi fluid; time 0.5-4 hrs
CYP2C9 = CYP2C9 (Homo sapiens, UniProt P11712); assay: Inhibition of CYP2C9 in human liver microsomes at 10 uM preincubated for 5 mins followed by NADPH addition by LC-MS/MS analysis relative to control; format: ADME, Microsome
[27] = Tmax in Sprague-Dawley rat at 10 mg/kg, po administered as solution measured upto 24 hrs by LC-MS/MS analysis; format: ADME, organism-based; conditions: in vivo
Rattus norvegicus = assay: Subchronic effect on parathyroid hormone in overnight fasted adenine diet-induced chronic kidney disease Wistar rat model plasma assessed as reduction in plasma PTH level at 0.3 mg/kg, po qd measured after 27 days of post treatment by sandwich ELISA analysis; format: functional; set-up: scale not given: the % may be the effect or the level left; conditions: time 27 day
[28] = Protein binding in rat plasma incubated for 16 hrs under shaking condition by rapid equilibrium dialysis based LC-MS/MS method; format: ADME, cell-free; conditions: read-out: PPB
[29] = Tmax in Sprague-Dawley rat at 100 mg/kg; format: ADME, organism-based; conditions: in vivo
[30] = Cmax in rat at 25 mg/kg per day, po via gavage administered for 13 weeks; format: ADME, organism-based; set-up: time 13 weeks, dose 25 mg/kg, route po; conditions: in vivo
[31] = AUC(0 to t) in human at 25 mg/kg, po administered as single dose; format: ADME, organism-based; set-up: dose 25 mg/kg, route po; conditions: in vivo

Sequence of CYP2D6 (P10635 whole entry): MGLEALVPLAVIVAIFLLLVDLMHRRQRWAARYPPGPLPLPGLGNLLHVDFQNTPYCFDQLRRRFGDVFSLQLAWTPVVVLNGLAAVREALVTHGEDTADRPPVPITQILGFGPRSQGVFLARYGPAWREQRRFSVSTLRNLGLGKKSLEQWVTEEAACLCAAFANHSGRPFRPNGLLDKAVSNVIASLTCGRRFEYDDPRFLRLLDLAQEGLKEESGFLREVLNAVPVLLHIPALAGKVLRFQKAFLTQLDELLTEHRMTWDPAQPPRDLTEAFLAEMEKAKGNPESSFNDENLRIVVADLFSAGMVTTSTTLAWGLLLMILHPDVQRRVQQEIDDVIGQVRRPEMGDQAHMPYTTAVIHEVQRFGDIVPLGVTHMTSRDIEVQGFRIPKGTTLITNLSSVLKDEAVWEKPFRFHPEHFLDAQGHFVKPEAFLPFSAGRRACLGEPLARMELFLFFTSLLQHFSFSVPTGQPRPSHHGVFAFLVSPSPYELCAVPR
Sequence of CYP2C9 (P11712 whole entry): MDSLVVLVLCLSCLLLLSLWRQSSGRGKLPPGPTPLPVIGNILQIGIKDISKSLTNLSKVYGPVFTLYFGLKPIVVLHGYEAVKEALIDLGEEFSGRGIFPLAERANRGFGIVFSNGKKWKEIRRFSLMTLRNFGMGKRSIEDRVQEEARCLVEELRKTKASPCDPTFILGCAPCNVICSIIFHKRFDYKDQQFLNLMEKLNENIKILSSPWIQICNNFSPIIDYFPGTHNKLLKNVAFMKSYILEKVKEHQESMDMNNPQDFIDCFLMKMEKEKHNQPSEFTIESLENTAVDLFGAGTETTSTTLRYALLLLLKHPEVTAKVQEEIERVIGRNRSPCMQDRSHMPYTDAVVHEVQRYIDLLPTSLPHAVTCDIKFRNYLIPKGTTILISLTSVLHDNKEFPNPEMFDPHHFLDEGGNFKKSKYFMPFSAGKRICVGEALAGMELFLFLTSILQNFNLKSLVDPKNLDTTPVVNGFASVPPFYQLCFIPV

Work on `Cc1ccc([C@@H]2C[C@H](CN[C@H](C)c3cccc4ccccc34)Oc3ccccc32)cc1C(=O)O.Cl` yielded a bioavailability [1] of 99%, a solubility kinetic at 16 h, 500 µM [2] of over 200 µM and a Tmax [3] of 1 h. It also gave a fraction unbound at 16 h [4] of under 0.01, a Vd [5] of 0.6 L/kg and a bioavailability [6] of 100%. The Tmax [7] was 15 min, the remaining at 4 h [8] was over 80% and the half-life [9] was 240 min. It also gave a clearance [10] of 2 mL/min/kg, an AUC(0-t) at 336 h [11] of 108 µg·h/mL and an inhibition at 10 µM (CYP1A2) of 0%. For the same compound, the Cmax [12] was 202 ng/mL, the remaining at 0.5 h, 1 µM [13] was 77% and the Activity [14] was 99%. For the same compound, the Cmax [15] was 4 µM, the clearance [16] was 4 mL/min/kg and the Activity [17] was 74%. For the same compound, the remaining at 1 h [18] was over 80%, the Cmax [19] was 11 µM and the inhibition at 10 µM (CYP2D6) was 0%. For the same compound, the Cmax [20] was 72 µM, the Cmax [21] was 14 µM and the AUC(0-t) at 24 h [22] was 23 µM·h. For the same compound, the AUC(0-t) [23] was 1020 µM·h, the Stability [24] was “Stable” and the inhibition [25] was over 50%. The Stability [26] was “Stable”, the inhibition at 10 µM (CYP2C9) was 0% and the Tmax [27] was 36 min. The Activity (Rattus norvegicus) was 73%, the fraction unbound at 16 h [28] was under 0.01 and the Tmax [29] was 1 h. For the same compound, the Cmax [30] was 9660 ng/mL and the AUC(0-t) [31] was 2930 ng·h/mL.
